In patent US12409206B2, “Use of cyclosporine analogues for treating fibrosis” (Hepion Pharmaceuticals, Inc., priority 2020, dated 2025):

Tests used:
[1] = system: Human Lung Fibroblasts from a Patient with Idiopathic Pulmonary Fibrosis (IPF); assay: Cell viability analysis, IPF lung fibroblast culture; type: cell-based; details: end of treatment (6 days)
Description: Human Lung Fibroblasts from a Patient with Idiopathic Pulmonary Fibrosis (IPF) (Lonza Bioscience, Cat. #CC-7231) were cultured in 96-well plates. Treatments were applied in triplicate wells (applied 100 ul treatments per well) for 6 days. Cells were near confluence at the start of treatments. […] Spent culture medium collected at the end of the treatments was assayed for procollagen and fibronectin by enzyme-linked immunosorbent assays (ELISA) (Procollagen ELISA antibody pair (ab216064) and fibronectin ELISA antibody pair (ab222262) from Abcam). Procollagen and fibronectin were not detected in medium not applied to cells. Procollagen and fibronectin levels in the medium are represented by means±SD (bars) from 3 replicate wells (open circles).

[2] = system: mouse unilateral ureteral obstruction (UUO) model of kidney fibrosis; assay: Mouse unilateral ureteral obstruction (UUO) model of kidney fibrosis, Sirius red; type: in vivo, C57BL/6 mice; details: 50 mg/kg/day daily oral gavage for 13 days; vs vehicle; per-section and per-animal; one-way ANOVA with Tukey
Description: This example describes a study conducted in the mouse unilateral ureteral obstruction (UUO) model of kidney fibrosis. Seven-week-old female C57BL/6 mice were used in this study (n=8 mice per group). Sham group mice received no UUO. The remaining mice underwent complete surgical ligation of the left ureter. Vehicle and CRV431 at 50 mg/kg/day were administered by daily oral gavage for 13 days starting on the day of surgery. Mice were sacrificed on Day 14, and left kidneys were processed histologically and stained for fibrotic collagen with Sirius red. The percentage of each histological section with Sirius red staining was measured morphometrically in 5 sections from each kidney. Results are shown in FIG. 7A (showing Sirius red in individual tissue sections) and 7B (showing Sirius red in individual mice (5 tissue sections per mouse)).

CC[C@@H]1NC(=O)[C@H]([C@H](O)[C@H](C)CCCCCCNC(C)=O)N(C)C(=O)[C@H](C(C)C)N(C)C(=O)[C@H](CC(C)C)N(C)C(=O)[C@H](CC(C)C)N(C)C(=O)[C@@H](C)NC(=O)[C@H](C)NC(=O)[C@H](CC(C)C)N(C)C(=O)[C@H](C(C)C)NC(=O)[C@H](CC(C)C)N(C)C(=O)[C@@H](C)N(C)C1=O [CRV431]
cell viability [1]: none of the CRV431 treatments affected cell viability | Sirius red staining (fibrotic collagen) of left kidney [2]: statistically significant decrease
